Results taken from patent publication US12692249B2, “WDR5 inhibitors and modulators” (Vanderbilt University, priority 2019, dated 2026).

Key:
WDR5 = WDR5 (Homo sapiens, UniProt P61964); assay: TR-FRET competition binding assay, displacement of 10mer-Thr-FAM MLL peptide probe from His-tagged WDR5; details: WDR5-His tag (residues 24-334) 2 nM; 10mer-Thr-FAM 150 nM; 60 min, room temperature; read-out: Ki for Inhibition of WDR5 by TR-FRET assay
[1] = test system: MV4:11 human cancer cell lines; assay: Cellular viability / anti-proliferative assay, CellTiter-Glo, 5 day protocol; type: cell-based; details: Homo sapiens, MV4-11, 120 h, MV4:11 cells; 5 day incubation; CellTiter-Glo; mean of at least two replicates; read-out: GI50 on cellular proliferation of MV4:11 human cancer cell lines
Outline: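 MV-4-11 cells in IMDM with 10% FBS, 200 cells/well, exposed 5 days to 22 two-fold dilutions from 30 μM, final DMSO 0.3%. Viability read by CellTiter-Glo luminescence; GI50 from sigmoidal dose-response fit, mean of at least two replicates.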

| Ki (WDR5) [nM] | GI50 [1] [nM] | SMILES |
| --- | --- | --- |
| < 0.02 | 51 | CNC(=O)c1cc(N2CCc3c(cc(Cn4ccnc4)cc3-c3cn(C)nc3C(F)(F)F)C2=O)c2cc(OC)ccc2n1 [Example 237, 4-(7-((1H-Imidazol-1-yl)methyl)-5-(1-methyl-3-(trifluoromethyl)-1H-pyrazol-4-yl)-1-oxo-3,4-dihydroisoquinolin-2(1H)-yl)-6-methoxy-N-methylquinoline-2-carboxamide] |
| < 0.02 | 30 | CCc1cc(CN(C)C(C)=O)c2nccc(N3CCc4c(cc(Cn5ccnc5)cc4-c4cn(C)nc4C(F)(F)F)C3=O)c2c1 [Example 238] |
| < 0.02 | 23 | CCc1cc(CNC(C)=O)c2nccc(N3CCc4c(cc(Cn5ccnc5)cc4-c4cn(C)nc4C(F)(F)F)C3=O)c2c1 [Example 240, N-((4-(7-((1H-Imidazol-yl)methyl)-5-(1-methyl-3-(trifluoromethyl)-1H-pyrazol-4-yl)-1-oxo-3,4-dihydroisoquinolin-2(1H)-yl)-6-ethylquinolin-8-yl)methyl)acetamide] |
| < 0.02 | 29 | COc1cc(C(=O)NC2CN(C(=O)c3ccncc3)C2)c2nccc(N3CCc4c(cc(Cn5ccnc5)cc4-c4cn(C)nc4C(F)(F)F)C3=O)c2c1 [Example 242, 4-(7-((1H-Imidazol-1-yl)methyl)-5-(1-methyl-3-(trifluoromethyl)-1H-pyrazol-4-yl)-1-oxo-3,4-dihydroisoquinolin-2(1H)-yl)-N-(1-isonicotinoylazetidin-3-yl)-6-methoxyquinoline-8-carboxamide] |
